The text below walks through data of PubChem BioAssay (NCI).

Values joined by “and” are separate entries in the source; they are usually repeats but may differ in a detail not shown here. Identical values can stand only once.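 Grown in 96-well plates, cells were treated for 48 hours with each compound at five concentrations. Insufficient inhibition: endpoint recorded as highest concentration tested. GI50: concentration for 50% inhibition of growth. Definition used: TGI = concentration required for complete inhibition of growth.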 Where only a bound is given, the exact number is not on record here.

What all share (experiment): NCI tumour cell line growth inhibition, 48 h
The subject of assay [1] is A549 NSCLC.
Assay [2] concerns HCC-2998 colon.
For assay [3], the system named is KM12 colon.
Assay [4] concerns M14 melanoma.
The subject of assay [5] is NCI-H460 lung.
Assay [6] concerns OVCAR-8 ovarian.
Assay [7] concerns PC-3 prostate.
Assay [8] deals with SF-268 CNS.
Assay [9] relates to U251 CNS.
The test system of assay [10] is UO-31 renal.

`NC(N)=Nc1ccc(/C=C2\C=Cc3ccccc32)cc1`: the GI50 in assay [1] was 1.87 µM; in [2], 1.69 µM; in assay [3] it was 1.85 µM; in [4], 2.05 µM; in assay [5], 2.01 µM; in [6], 2.22 µM. For the same compound, the GI50 in [7] is 3.31 µM; in [8], 3.12 µM; in assay [9], 1.72 µM; in [10] it was 2.15 µM. Besides, the TGI in [1] came to 4.63 µM; in [2], 3.15 µM; in assay [3], 3.51 µM; in assay [4], 5.44 µM; in assay [5], 4.51 µM; in assay [6] it was 5.67 µM. The TGI in [7] came out at 14.8 µM; in assay [8], 10.9 µM; in [9], 3.31 µM; in [10] it was 6.58 µM.

With `Cc1ccccc1C(C(=O)NC1CCCCC1)N(C(=O)CNc1ccc(C#N)cc1)c1cccc(F)c1` (stereo unspecified), the GI50 in assay [1] is 44 µM; in assay [2] it was above 100 µM; in assay [3], above 100 µM; in [4], 80.9 µM; in [5], 34.4 µM; in assay [6], 10.6 µM. The GI50 in assay [7] was 20.3 µM; in [8], 16.6 µM; in assay [9], 5.28 µM; in [10], above 93.5 µM. Besides, the TGI in [1], in assay [2], in assay [3], in assay [4], in assay [5] and in assay [6] was above 100 µM in each case. For the same compound, the TGI in assay [7], in assay [8], in assay [9] and in [10] was above 100 µM throughout.

As to `CC(=O)OCC1OC(n2ncc(=O)[nH]c2=O)C(OC(C)=O)C1OC(C)=O` (stereo unspecified), the TGI in assay [1], in [2], in assay [3], in [4], in assay [5] and in assay [6] was above 100 µM throughout. Moreover, the TGI in assay [7], in assay [8] and in assay [9] was above 100 µM each time.

With `O=C1CC(CC(OCc2ccccc2)C(OCc2ccccc2)C(COCc2ccccc2)OCc2ccccc2)CC(=O)N1` (stereo unspecified), the TGI in assay [1] was above 100 µM; in [2], > 100 µM and 42.9 µM; in assay [3], > 100 µM and 21.3 µM; in assay [4], above 100 µM; in assay [5], > 100 µM and 97.7 µM; in assay [6] it was > 100 µM and 48.8 µM. Also, the TGI in assay [7] was > 100 µM and 38.5 µM; in assay [8], > 100 µM and 65.3 µM; in assay [9] it was > 100 µM and 18.1 µM. The GI50 was > 100 µM and 12.9 µM in assay [2]; > 100 µM and 19.8 µM in assay [4]; > 100 µM and 13.7 µM in [6]; > 100 µM and 11.3 µM in assay [7]; > 100 µM and 11.2 µM in assay [8].

Consider `CCOC(=O)c1cc(NS(=O)(=O)c2ccc(C)cc2)cc(C(=O)OCC)c1`, for which the GI50 was 41.4 µM in assay [1]; 19.5 µM in [2]; 55.9 µM in assay [3]; 52.5 µM in assay [4]; 37.5 µM in assay [5]; 47.7 µM in assay [7]. The GI50 in assay [8] is 40.4 µM; in assay [9], 51.3 µM; in [10], 39.1 µM. For the same compound, the TGI in assay [1] is above 100 µM; in assay [2] it was 70.8 µM; in assay [3] it was above 100 µM; in assay [4] it was above 100 µM; in assay [5] it was above 100 µM; in [7] it was above 100 µM. Moreover, the TGI in assay [8], in assay [9] and in assay [10] was above 100 µM each time.

Turning to `Cc1ccsc1-c1ccc2c(c1)COC2(CCCN(C)C)c1ccc(F)cc1` (stereo unspecified), the GI50 in assay [1] was 4.48 µM; in assay [2], 1.71 µM; in [3] it was 3.13 µM; in assay [4] it was 1.73 µM; in assay [5], 1.77 µM; in assay [6], 3.28 µM. Further, the GI50 in assay [7] was 3.28 µM; in [8], 4.28 µM; in [9] it was 1.95 µM; in assay [10] it was 1.7 µM. The TGI was determined as 18.1 µM in assay [1]; 3.25 µM in assay [2]; 10.9 µM in [3]; 3.46 µM in assay [4]; 3.49 µM in assay [5]; 13.2 µM in [6]. In addition, the TGI in assay [7] worked out at 13.2 µM; in [8], 17.1 µM; in assay [9], 4.24 µM; in assay [10] it was 6.26 µM.

For `CC/C=C\C[C@H](O)C/C=C1/C(=O)C=C[C@@H]1C/C=C\CCCCO`, the GI50 in assay [1] was 3.35 µM; in assay [2], 1.83 µM; in assay [3], 2.84 µM; in assay [4], 2.06 µM; in assay [5], 2.93 µM; in assay [6], 3.24 µM. The GI50 was 3.32 µM in [7], 4.53 µM in [8], 3.81 µM in assay [9] and 1.63 µM in [10]. The TGI is 11.5 µM in assay [1]; 3.38 µM in assay [2]; 11.5 µM in assay [3]; 6.17 µM in [4]; 9.24 µM in [5]; 11.9 µM in assay [6]. Moreover, the TGI was 9.23 µM in assay [7], 23.9 µM in [8], 13.4 µM in assay [9] and 3.23 µM in assay [10].

`O=C1CC(N2C(=O)/C(=C/C(Cl)=C\c3ccc([N+](=O)[O-])cc3)SC2=S)C(=O)N1c1ccc(O)cc1` (stereo unspecified): the GI50 in assay [1] is 3.11 µM; in assay [2] it was 1.48 µM; in assay [3], 1.83 µM; in [4], 1.46 µM; in [5], 2.55 µM; in assay [6], 2.16 µM. The GI50 in assay [7] was 0.906 µM; in assay [8], 2.43 µM; in [9], 0.597 µM; in assay [10] it was 1.35 µM. In addition, the TGI in assay [1] worked out at 11.3 µM; in [2], 2.92 µM; in assay [3], 4.64 µM; in [4], 3.31 µM; in assay [5], 6.75 µM; in [6], 14.2 µM. The TGI in assay [7] stood at 2.87 µM; in assay [8], 6.99 µM; in assay [9], 2.21 µM; in assay [10] it was 2.79 µM.
